Assay results published in EPA's ToxRefDB 2.

Experiments:
rat [1] = settings: Subchronic oral toxicity in rodents, other, [Not Specified], dose end: 90 day, group: systemic
dog = settings: Chronic toxicity, beagle, Oral, Feed, dose end: 24 month, group: systemic
rat [2] = settings: Combined chronic toxicity/carcinogenicity; fischer; Oral; Feed; dose end: 110 week; group: systemic; systemic / clinical chemistry / cholesterol / cholesterol + systemic / clinical chemistry / creatinine / creatinine + systemic / clinical …
rat [3] = settings: Multigenerational reproductive toxicity study, sprague dawley, Oral, Feed, dose end: 2 generation
hamster [4] = settings: Subchronic oral toxicity in rodents, golden syrian, Feed, dose end: 13 week, group: systemic
hamster [5] = settings: Carcinogenicity; golden syrian; Oral; Feed; dose end: 88 week; group: systemic; systemic / pathology microscopic / pancreas / hyperplasia + systemic / pathology microscopic / prostate / secretory fluid + systemic / …
hamster [6] = settings: Carcinogenicity, golden syrian, Oral, Feed, dose end: 91 week, group: systemic
rabbit = settings: Prenatal developmental toxicity study, new zealand white, Oral, Gavage/Intubation, dose end: 19 GD
[7] = systemic / organ weight / liver / nos
[8] = systemic / organ weight / liver / nos + systemic / hematology / leukocyte (wbc) count differential / leukocyte (wbc) + systemic / hematology…
[9] = systemic / clinical chemistry / [other] / [other] + systemic / clinical chemistry / alanine aminotransferase (alt/sgpt) / alanine …
[10] = group: offspring, systemic / in life observation / body weight / offspring (pup) weight
[11] = group: parental, systemic / in life observation / body weight / body weight + systemic / in life observation / body weight / body weight gain + systemic / in…
[12] = group: reproductive, reproductive / reproductive performance / implantations / implantations
[13] = systemic / clinical chemistry / lipids / phospholipids + systemic / organ weight / liver / nos + systemic / organ weight / prostate / nos + …
[14] = systemic / clinical chemistry / lipids / phospholipids + systemic / organ weight / liver / nos + systemic / pathology microscopic / …
[15] = systemic / in life observation / body weight / body weight gain
[16] = systemic / in life observation / body weight / body weight gain + systemic / organ weight / heart / nos
[17] = group: developmental, developmental / developmental malformation / aortic arch / dilated + developmental / developmental malformation / aortic arch / narrowed + …
[18] = group: maternal, reproductive / reproductive performance / postimplantation loss / postimplantation loss + reproductive / reproductive performance / …

In the case of `N#Cc1c(Cl)cccc1Cl` [Dichlobenil], the LEL (rat [1]; [7]) is reported as 50 mg/kg/day, the LOAEL (rat [1]; [7]) is reported as 50 mg/kg/day and the NEL (rat [1]; [8]) is reported as 5 mg/kg/day. For the same compound, the NOAEL (rat [1]; [8]) was 5 mg/kg/day, the LOAEL (dog; [9]) was 8.75 mg/kg/day and the NEL (dog; [9]) was 0.5 mg/kg/day. The NOAEL (dog; [9]) was 1.25 mg/kg/day, the LEL (dog; systemic / urinalysis / occult blood / blood) was 1.25 mg/kg/day and the LEL (rat [2]) was 17.3 mg/kg/day. For the same compound, the LOAEL (rat [2]) was 17.3 mg/kg/day, the NEL (rat [2]) was 2.1 mg/kg/day and the NOAEL (rat [2]) was 2.1 mg/kg/day. It also gave an LEL (rat [3]; [10]) of 15 mg/kg/day, an LOAEL (rat [3]; [10]) of 15 mg/kg/day and an NEL (rat [3]; [10]) of 3 mg/kg/day. The NOAEL (rat [3]; [10]) was 3 mg/kg/day, the LEL (rat [3]; [11]) was 100 mg/kg/day and the LOAEL (rat [3]; [11]) was 100 mg/kg/day. The NEL (rat [3]; [11]) was 15 mg/kg/day, the NOAEL (rat [3]; [11]) was 15 mg/kg/day and the LEL (rat [3]; [12]) was 100 mg/kg/day. It also gave an LOAEL (rat [3]; [12]) greater than 100 mg/kg/day, an NEL (rat [3]; [12]) of 15 mg/kg/day and an NOAEL (rat [3]; [12]) of no less than 100 mg/kg/day. For the same compound, the LEL (hamster [4]; [13]) was 18.8 mg/kg/day, the LOAEL (hamster [4]; [13]) was 18.8 mg/kg/day and the NEL (hamster [4]; [14]) was 3.75 mg/kg/day. For the same compound, the NOAEL (hamster [4]; [14]) was 3.75 mg/kg/day, the LEL (hamster [5]) was 45.6 mg/kg/day and the LOAEL (hamster [5]) was 45.6 mg/kg/day. It also gave an NEL (hamster [5]) of 9.39 mg/kg/day, an NOAEL (hamster [5]) of 9.39 mg/kg/day and an LOAEL (hamster [6]; [15]) of 51 mg/kg/day. For the same compound, the NOAEL (hamster [6]; [15]) was less than 51 mg/kg/day, the LEL (hamster [6]; [16]) was 51 mg/kg/day and the NEL (hamster [6]; [16]) was less than 51 mg/kg/day. The LEL (rabbit; [17]) was 135 mg/kg/day, the LOAEL (rabbit; [17]) was 135 mg/kg/day and the NEL (rabbit; [17]) was 45 mg/kg/day. It also gave an NOAEL (rabbit; [17]) of 45 mg/kg/day, an LEL (rabbit; [18]) of 135 mg/kg/day and an LOAEL (rabbit; [18]) of 135 mg/kg/day. The NEL (rabbit; [18]) was 45 mg/kg/day and the NOAEL (rabbit; [18]) was 45 mg/kg/day.
